System: Bacillus thuringiensis
Assay: Antibacterial activity against Bacillus thuringiensis assessed as inhibition of bacterial growth by agar plate method; call rule not given here
Assay type: functional, organism-based

Row | Compound | Activity
1 | CC[C@@H](O)[C@@](C)(O)/C=C/C=C\[C@H](O)C(Cl)Cl | Not active; Detectable Activity Not Observed
2 | O=c1cc(C(Cl)Cl)cc(CO)o1 | Not active; Detectable Activity Not Observed
3 | CC[C@@H](O)/C(C)=C/[C@@H](O)c1cc(C(Cl)Cl)cc(=O)o1 | Not active; Detectable Activity Not Observed
4 | CC/C=C(\C)[C@@H](O)[C@@H](O)C1=CC(=O)/C(=C/C(Cl)Cl)O1 | Moderate_effect
5 | CC/C=C(\C)[C@@H](O)[C@@H](O)C1=CC(=O)/C(=C\C(Cl)Cl)O1 | Moderate_effect
6 | CC/C=C(\C)[C@@H](O)[C@@H](O)c1cc(C(Cl)Cl)cc(=O)o1 | Not active; Detectable Activity Not Observed
7 | CC[C@@H](O)[C@](C)(O)/C=C/C=C\[C@H](O)C(Cl)Cl | Not active; Detectable Activity Not Observed
8 | CC[C@H](O)/C(C)=C/[C@@H](O)c1cc(C(Cl)Cl)cc(=O)o1 | Not active; Detectable Activity Not Observed
